Results taken from US20100056519A1, “COMPOSITION AND METHOD FOR REDUCING PLATELET ACTIVATION AND FOR THE TREATMENT OF THROMBOTIC EVENTS” (priority 2008, published 2010).

Key:
Format in all cases: cell-based, human
[1] = system: platelets; assay: Platelet aggregation induced by 10 μM TRAP; conditions: for Platelet Aggregation (%), TRAP 10 μM: Mean ± SD
Protocol: (§1) The methodology employed was conventional aggregation induced by 5 μM ADP, 1 μg/ml collagen, 10 μM TRAP, whole blood aggregation with 1 μg/ml collagen, Ultegra, and PFA-100 Analyzers, expression of 14 intact, and TRAP-stimulated major receptors by whole blood flow cytometry were utilized to assess platelet activity after preincubation with escalating concentrations of E5555 (20 ng/ml, 50 ng/ml, and 100 ng/ml). The experiments were performed in healthy volunteers, CAD patients treated with ASA, and CAD patients treated with ASA and clopidogrel combination (n=10, for each group).
(§2) An Informed Consent was obtained from all volunteers. Drug users were excluded from data analysis. The study was approved by Quorum Institutional Review Board. All subjects underwent blood sampling after at least 30 minutes of rest and two or more hours of fasting. Blood (28 ml) was drawn between 8 and 10 a.m. in order to avoid any diurnal influence and sampled from an antecubital vein using a 21-gauge butterfly needle containing 3.2% sodium citrate (1:9 volume) after having discarded the first 1.5 ml of free running blood. Four Vacutainer tubes (7.0 ml) were collected for a total of 28 ml of whole blood-citrate mixture from each study participant. Chronologically, blood samples were delivered to the core laboratory facility within 45 minutes after drawing. Then all tubes of blood-citrate mixture were pooled. One portion of pooled blood (5 ml) was kept as an internal control and pretreated with the vehicle. The remaining blood (23 ml) was used for the in vitro exposure to E5555 at concentrations of 20 ng/ml, 50 ng/ml, and 100 ng/ml. […] The platelet aggregation studies, Rapid Analyzers measures, and flow cytometry preparations were initiated within no more than 110 minutes following the blood draw, incubation with the drug, and preparation of the samples.
Platelet counts were determined in each PRP sample with a Coulter Counter ZM (Coulter Co., Hialeah, Fla.). Platelet numbers were adjusted to 3.50×10^8/ml for aggregation using homologous platelet-poor plasma. Platelet aggregation was stimulated with 5 μM ADP, 1 μg/ml collagen, or 10 μM TRAP. All agonists were obtained from Chronolog Corporation (Havertown, Pa.) and Sigma (St. Louis, Miss.). Platelet aggregation experiments were performed using a Chrono-Log Lumi-Aggregometer (model 560-Ca). Aggregation curves were recorded for 4 minutes and analyzed according to internationally established standards using Aggrolink® software. Platelet aggregability was expressed as the percentage of light transmittance change from baseline using platelet-poor plasma as a reference.

[2] = system: P-selectin (CD62p); assay: Unstimulated whole blood flow cytometry, P-selectin; conditions: for P-selectin (CD62p), % positive cells: unstimulated, Mean ± SD
Protocol: as §1, §2
(§3) Formation of platelet-leukocyte aggregates was assessed by dual labeling with pan-platelet marker (CD151), and then with CD14, the macrophage receptor for endotoxin lipopolysaccharides (PharMingen, and Coulter, San Diego, Calif., USA). The tubes were then covered with aluminum foil and incubated at 37° C. for 40 minutes with gentle rotation. After incubation, samples were immediately analyzed on a Becton Dickinson FACScan flow cytometer. The instrument was set up to measure forward light scatter, and FITC fluorescence. All parameters were collected using four-decade logarithmic amplification. The data was retrieved in list mode files and then analyzed. P selectin was expressed as percent positive cells. Other antigens were expressed as log mean fluorescence intensity.

[3] = system: LAMP-3 (CD63); assay: Unstimulated whole blood flow cytometry, LAMP-3; conditions: for LAMP-3 (CD63), Mean Fluorescence Intensity: unstimulated, Mean ± SD
Protocol: as §1, §2, §3

[4] = system: LAMP-1 (CD107a); assay: Unstimulated whole blood flow cytometry, LAMP-1
Protocol: as §1, §2, §3

[5] = overall summary, stimulation not stated
[6] = E5555 20 ng/ml, Patients (ASA + C)
[7] = E5555 50 ng/ml, Patients (ASA + C)
[8] = E5555 100 ng/ml, Patients (ASA + C)
[9] = E5555 100 ng/ml, Patients (ASA)

Br.CCOc1cc2c(c(F)c1OCC)C(=N)N(CC(=O)c1cc(N3CCOCC3)c(OC)c(C(C)(C)C)c1)C2 [E5555, 1-(3-tert-butyl-4-methoxy-5-morpholinophenyl)-2-(5,6-diethoxy-7-fluoro-1-imino-1,3-dihydro-2H-isoindol-2-yl)ethanone hydrobromide]
TRAP-induced aggregation, effect in words ([1]; ASA-treated patients with coronary artery disease): fully inhibiting
TRAP-induced aggregation, effect in words ([1]; CAD patients treated with ASA+clopidogrel): profound blockade
Platelet Aggregation (%), TRAP 10 μM ([1]; E5555 20 ng/ml, CAD patients treated with ASA + clopidogrel): 2.2 ± 1.6 %
Platelet Aggregation (%), TRAP 10 μM ([1]; E5555 20 ng/ml, CAD patients treated with ASA): 2.7 ± 1.4 %
Platelet Aggregation (%), TRAP 10 μM ([1]; E5555 20 ng/ml, healthy volunteers): 2.1 ± 1.2 %
Platelet Aggregation (%), TRAP 10 μM ([1]; E5555 50 ng/ml, CAD patients treated with ASA + clopidogrel): 1.8 ± 1.0 %
Platelet Aggregation (%), TRAP 10 μM ([1]; E5555 50 ng/ml, CAD patients treated with ASA): 3.3 ± 1.8 %
Platelet Aggregation (%), TRAP 10 μM ([1]; E5555 50 ng/ml, healthy volunteers): 1.3 ± 1.2 %
Platelet Aggregation (%), TRAP 10 μM ([1]; E5555 100 ng/ml, CAD patients treated with ASA + clopidogrel): 2.7 ± 2.2 %
Platelet Aggregation (%), TRAP 10 μM ([1]; E5555 100 ng/ml, CAD patients treated with ASA): 2.9 ± 2.0 %
Platelet Aggregation (%), TRAP 10 μM ([1]; E5555 100 ng/ml, healthy volunteers): 2.7 ± 1.8 %
TRAP-induced aggregation, effect in words ([1]; healthy volunteers, E5555 20, 50, and 100 ng/ml): inhibited completely
TRAP-induced aggregation, effect in words ([1]; overall summary of the study): inhibited almost completely
P selectin, effect in words [2, 5]: not affected
P-selectin (CD62p), % positive cells [2, 6]: 7.6 ± 2.0 % positive cells
P-selectin (CD62p), % positive cells ([2]; E5555 20 ng/ml, Patients (ASA)): 9.7 ± 1.5 % positive cells
P-selectin (CD62p), % positive cells ([2]; E5555 20 ng/ml, Volunteers): 10.8 ± 2.0 % positive cells
P-selectin (CD62p), % positive cells [2, 7]: 7.7 ± 2.2 % positive cells
P-selectin (CD62p), % positive cells ([2]; E5555 50 ng/ml, Patients (ASA)): 10.1 ± 1.8 % positive cells
P-selectin (CD62p), % positive cells ([2]; E5555 50 ng/ml, Volunteers): 12.3 ± 2.2 % positive cells
P-selectin (CD62p), % positive cells [2, 8]: 8.0 ± 11.5 % positive cells
P-selectin (CD62p), % positive cells [2, 9]: 10.7 ± 1.6 % positive cells
P-selectin (CD62p), % positive cells ([2]; E5555 100 ng/ml, Volunteers): 11.4 ± 1.8 % positive cells
LAMP, effect in words [3, 5]: not affected
LAMP-3 (CD63), Mean Fluorescence Intensity [3, 6]: 7.2 ± 1.3 MFI
LAMP-3 (CD63), Mean Fluorescence Intensity ([3]; E5555 20 ng/ml, Patients (ASA)): 7.0 ± 1.6 MFI
LAMP-3 (CD63), Mean Fluorescence Intensity ([3]; E5555 20 ng/ml, Volunteers): 8.1 ± 2.0 MFI
LAMP-3 (CD63), Mean Fluorescence Intensity [3, 7]: 7.0 ± 1.7 MFI
LAMP-3 (CD63), Mean Fluorescence Intensity ([3]; E5555 50 ng/ml, Patients (ASA)): 7.2 ± 1.5 MFI
LAMP-3 (CD63), Mean Fluorescence Intensity ([3]; E5555 50 ng/ml, Volunteers): 8.0 ± 1.7 MFI
LAMP-3 (CD63), Mean Fluorescence Intensity [3, 8]: 6.9 ± 1.8 MFI
LAMP-3 (CD63), Mean Fluorescence Intensity [3, 9]: 6.5 ± 1.9 MFI
LAMP-3 (CD63), Mean Fluorescence Intensity ([3]; E5555 100 ng/ml, Volunteers): 7.7 ± 2.1 MFI
LAMP-1, effect in words [4, 5]: not affected
LAMP-1 (CD107a), Mean Fluorescence Intensity ([4]; unstimulated, E5555 20 ng/ml, Patients (ASA + C), Mean ± SD): 4.2 ± 1.6 MFI
